According to patent US20130040853A1, “Context Specific Genetic Screen Platform to Aid in Gene Discovery and Target Validation” (Dana-Farber Cancer Institute Inc., priority 2010, published 2013):

Tested on: HMEL-BRAF^V600E melanocytes
Experiment: In vivo functional genetic screen and secondary validation: kinase-transduced HMEL cells implanted in nude mice
Parameters: species or system human
Excerpt: A ‘cancer-kinase’ library was constructed containing sequence-verified ORFs in a lentiviral vector for 110 of the 120 kinases reported to sustain somatic driver mutations in diverse human cancers. This library was pooled and introduced into a human HMEL-BRAF^V600E melanocyte model system engineered with BRAF^V600E and TERT as well as p53DD and CDK4-R24C to inactivate the […] pathways, respectively. The HMEL-BRAF^V600E melanocyte profile, while representing the most common clinically-definable genetic profile in human melanoma, is insufficient to drive efficient melanoma formation following orthotopic transplantation in the skin (penetrance of 10% and latency of 26 weeks). In contrast, 40% of HMEL-BRAF^V600E melanocytes transduced with the cancer kinase pools developed tumors with an average latency of 13 weeks (range 10-18 weeks).
In vivo functional genetic screens: Lentivirus were prepared by co-transfecting 293T cells with individual vector backbones and standard virus packaging systems for subsequent collection of viral supernatants. Viral supernatants were then pooled randomly to generate 8 pools of high-titer lentiviral stocks. HMEL cells were transduced with either GFP control lentivirus or each representative lentiviral pool in the presence of 8 ug/ml polybrene (Company). […]

Substance: JNK2 WT: wild type MAPK9/JNK2 kinase ORF expressed in HMEL cells
- Tumorigenicity in vivo (WT or mutant kinase expressed individually): YES
- tumor penetrance (secondary validation, kinase transduced individually into HMEL-BRAF^V600E melanocytes): 50%
